Assay results from US7608630B2, “Marasmius androsaceus L.es Fr extract, piperidone derivative, and their use for the preparation of hypertensives” (Hainan Yangpu New Special Pharmaceutical Co., Ltd., priority 2004, dated 2009).
Where “and” joins values, the source holds several entries; their conditions need not be identical. Identical values can stand only once.

Columns and labels:
[1] = system: ileum smooth muscle of guinea pig; test: Effects on ileum smooth muscle of guinea pig (automatic rhythmic contraction of isolated ileum section)
Experimental: The section was clamped at its both ends with frog heart clips, and placed in a perfusion tank with the lower end being fixed at the bottom of the tank and the top end being connected by a thread to a tensile transducer of a two-way electrophysiolograph, so that the automatic rhythmic contraction of the ileum section was recorded. The Tai's nutrient solution in the tank was kept at a temperature of 35° C., into which pure […] was bubbled. […] The normal contraction curve of the ileum section was firstly recorded using isoprenaline as a positive control.

[2] = system: aorta smooth muscle of rabbit; test: Effects on aorta of rabbit (contraction of isolated aorta section caused by adrenalin); set-up: species or system New Zealand rabbit
Experimental: A New Zealand rabbit was beheaded and unconscious. After thoracotomy, its thoracic aorta was quickly taken out, and quickly placed in and flushed with a pre-cooled LOCK's solution (which comprised of 1000 ml water, 9 g NaCl, 0.35 g KCl, 0.35 g MgSO4.7H2O, 0.16 g KH2PO4, and 1 g NaHCO3) to remove bloodiness. The connective tissue outside the blood vessel was carefully cut off, and an aorta section of 2-3 mm wide at an angle of 45° relative to the vessel was taken for use in the following test.
The aorta section of 2 cm long was clamped at its both ends with frog heart clips, and put in a thermostatic perfusion tank of 38° C. with the lower end being fixed at the bottom of the tank and the top end being connected by a thread to a tensile transducer of a two-way electrophysiolograph. Oxygen was bubbled to the solution in the perfusion tank, and the contraction force of the aorta section was recorded after balancing it in the solution for 80 min. During which, the LOCK's solution was changed once per 20 min. After adding 1.2×10^−6 mg/ml adrenalin to the solution, the contraction curve of the aorta section was recorded.

[3] = system: blood pressure of SHR rat; test: Reduction of blood pressure of anesthetized SHR rat; assay type: in vivo, spontaneously hypertensive rat (SHR); conditions: for Diastolic pressure / Systolic pressure: 10 mg/kg intravenous
Experimental: (§1) A spontaneously hypertensive rat (SHR) was anesthetized with 40 mg/ml pentobarbital, and fixed by its back on an experimental stand. The skin at its neck was cut open after removing hair, and thereafter the right common carotid artery was separated with its proximal end being clamped by a artery clamp and its axifugal end being ligated by a thread. A V-shape cut was made with scissors at the axifugal end, into which an arterial cannula filled with heparin physiological saline was inserted. The arterial cannula was connected with a blood pressure transducer, and then the blood pressure transducer was connected to a computer-controlled three-way physiological-pharmacological recorder. The right femoral vein of the rat was separated and intubated for the injection of a drug. When the blood pressure became stable (i.e., the blood pressure contraction curve became straight), the rat was administered by intravenous route.

[4] = system: blood pressure of cats; test: Reduction of blood pressure of cat; assay type: in vivo; conditions: for Average Diastolic pressure / Average Systolic pressure / Diastolic pressure, Animal 1-4 individually / Systolic pressure, Animal 1-4 individually: cats, 5 mg/kg iv; for Diastolic pressure, Animal 1-4 individually / Systolic pressure, Animal 1-4 individually: 5 mg/kg
Experimental: as §1
Five cats of 2.5-3.2 kg were administered orally and intravenously respectively according to the method in Example 8, and then their systolic pressure and diastolic pressure were determined using normal cats non-administered as a control group.

[5] = concentration range 5×10^−4 to 10×10^−2 mg/ml
[6] = SHR rat, 5 min after administration
[7] = SHR rat, 60 min after administration
[8] = SHR rat, 120 min after administration
[9] = SHR rat, 240 min after administration

`CC1(C)CNCC(C)(C)C1=O` [Compound of formula II, 3,3,5,5-tetramethyl-4-piperidone] was tested, and the “Relaxation Time” value ([1]; concentration 1 × 10^−4 mg/ml) was 7 h, the “Time of taking effect” value ([1]; concentration 1 × 10^−4 mg/ml) was 2 min and the “inhibition of the automatic rhythmic contraction of ileum section” value [1, 5] was “inhibit the automatic rhythmic contraction of ileum section”. The “inhibition of the automatic rhythmic contraction of the ileum section” value ([1]; different concentrations) was “could inhibit the automatic rhythmic contraction of the ileum section”, the “Time of taking effect” value ([2]; concentration 1 × 10^−4 mg/ml) was 2 min and the Contraction force ([2]; concentration 1 × 10^−4 mg/ml, 10 min, then adrenalin 1.2×10^−6 mg/ml, relative to original value) was 0.3. For the same compound, the “reduction of the contraction of aorta section caused by adrenalin” value ([2]; concentration range 5×10^−3-1×10^−4 mg/ml) was “could obviously reduce the contraction of aorta section caused by adrenalin”, the “inhibition of the contraction of aorta smooth muscle caused by adrenalin” value [2, 5] was “inhibit the contraction of aorta smooth muscle of rabbit caused by adrenalin” and the “contraction force resumed by adrenalin, fraction of the original value” ([2]; sample 10 min, then adrenalin 1.2×10^−6 mg/ml, stated for the three samples together) was “½-⅓”. For the same compound, the “effect of reducing blood pressure” value ([3]; 5-20 mg/kg, model of anesthetic rat) was “very obvious effect of reducing blood pressure”, the Diastolic pressure [3, 6] was 105 ± 11 mm/Hg and the Systolic pressure [3, 6] was 141 ± 9.2 mm/Hg. For the same compound, the Diastolic pressure [3, 7] was 84 ± 11 mm/Hg, the Systolic pressure [3, 7] was 120 ± 12 mm/Hg and the Diastolic pressure [3, 8] was 83 ± 21 mm/Hg. The Systolic pressure [3, 8] was 125 ± 14 mm/Hg, the Diastolic pressure [3, 9] was 110 ± 18 mm/Hg and the Systolic pressure [3, 9] was 163 ± 12 mm/Hg. The Diastolic pressure ([3]; SHR rat, before administration) was 124 ± 12 mm/Hg, the Systolic pressure ([3]; SHR rat, before administration) was 174 ± 11 mm/Hg and the “reduction of systolic pressure and diastolic pressure” value ([3]; SHR rat, dosage range 10-200 mg/kg, intravenous) was “could obviously reduce the systolic pressure and diastolic pressure of SHR rat”. For the same compound, the “effect of reducing blood pressure” value ([4]; 5-20 mg/kg, model of anesthetic cat) was “very obvious effect of reducing blood pressure”, the “Average Diastolic pressure” value ([4]; 10 min after administration) was 106 mmHg and the “Average Systolic pressure” value ([4]; 10 min after administration) was 135.5 mmHg. The “Diastolic pressure, Animal 1-4 individually” value ([4]; 10 min after administration) was 84 mmHg and 93 mmHg and 146 mmHg and 101 mmHg, the “Systolic pressure, Animal 1-4 individually” value ([4]; 10 min after administration) was 100 mmHg and 110 mmHg and 182 mmHg and 150 mmHg and the “Average Diastolic pressure” value ([4]; 20 min after administration) was 105.75 mmHg. The “Average Systolic pressure” value ([4]; 20 min after administration) was 139.75 mmHg, the “Diastolic pressure, Animal 1-4 individually” value ([4]; 20 min after administration) was 79 mmHg and 109 mmHg and 137 mmHg and 98 mmHg and the “Systolic pressure, Animal 1-4 individually” value ([4]; 20 min after administration) was 111 mmHg and 126 mmHg and 172 mmHg and 150 mmHg. For the same compound, the “Average Diastolic pressure” value ([4]; 30 min after administration) was 106.25 mmHg, the “Average Systolic pressure” value ([4]; 30 min after administration) was 141.25 mmHg and the “Diastolic pressure, Animal 1-4 individually” value ([4]; 30 min after administration) was 80 mmHg and 111 mmHg and 136 mmHg and 98 mmHg. For the same compound, the “Systolic pressure, Animal 1-4 individually” value ([4]; 30 min after administration) was 119 mmHg and 137 mmHg and 173 mmHg and 136 mmHg, the “Average Diastolic pressure” value ([4]; 40 min after administration) was 110.5 mmHg and the “Average Systolic pressure” value ([4]; 40 min after administration) was 144.5 mmHg. The “Diastolic pressure, Animal 1-4 individually” value ([4]; 40 min after administration) was 100 mmHg and 111 mmHg and 134 mmHg and 97 mmHg, the “Systolic pressure, Animal 1-4 individually” value ([4]; 40 min after administration) was 134 mmHg and 137 mmHg and 172 mmHg and 135 mmHg and the “Average Diastolic pressure” value ([4]; 50 min after administration) was 117 mmHg. The “Average Systolic pressure” value ([4]; 50 min after administration) was 152.25 mmHg, the “Diastolic pressure, Animal 1-4 individually” value ([4]; 50 min after administration) was 117 mmHg and 120 mmHg and 134 mmHg and 97 mmHg and the “Systolic pressure, Animal 1-4 individually” value ([4]; 50 min after administration) was 156 mmHg and 147 mmHg and 171 mmHg and 135 mmHg. The “Average Diastolic pressure” value ([4]; 60 min after administration) was 118.25 mmHg, the “Average Systolic pressure” value ([4]; 60 min after administration) was 158 mmHg and the “Diastolic pressure, Animal 1-4 individually” value ([4]; 60 min after administration) was 131 mmHg and 120 mmHg and 130 mmHg and 92 mmHg. For the same compound, the “Systolic pressure, Animal 1-4 individually” value ([4]; 60 min after administration) was 174 mmHg (2×) and 142 mmHg (2×), the “Average Diastolic pressure” value ([4]; 90 min after administration) was 121.75 mmHg and the “Average Systolic pressure” value ([4]; 90 min after administration) was 164.5 mmHg. For the same compound, the “Diastolic pressure, Animal 1-4 individually” value ([4]; 90 min after administration) was 122 mmHg and 129 mmHg and 144 mmHg and 92 mmHg, the “Systolic pressure, Animal 1-4 individually” value ([4]; 90 min after administration) was 170 mmHg and 167 mmHg and 178 mmHg and 143 mmHg and the “Average Diastolic pressure” value ([4]; 120 min after administration) was 124 mmHg. The “Average Systolic pressure” value ([4]; 120 min after administration) was 174.5 mmHg, the “Diastolic pressure, Animal 1-4 individually” value ([4]; 120 min after administration) was 123 mmHg and 129 mmHg and 148 mmHg and 96 mmHg and the “Systolic pressure, Animal 1-4 individually” value ([4]; 120 min after administration) was 182 mmHg and 167 mmHg and 202 mmHg and 147 mmHg. For the same compound, the “Average Diastolic pressure” value ([4]; 150 min after administration) was 127.5 mmHg, the “Average Systolic pressure” value ([4]; 150 min after administration) was 177 mmHg and the “Diastolic pressure, Animal 1-4 individually” value ([4]; 150 min after administration) was 124 mmHg and 140 mmHg and 148 mmHg and 98 mmHg.
